Measurements as given in ChEMBL document CHEMBL6083210, “Exploring apoptotic induction of malabaricone A in triple-negative breast cancer cells: an acylphenol phyto-entity isolated from the fruit rind of Myristica malabarica Lam” (RSC Med Chem, 2024).
Activity calls are given as the source filed them. The calls are words filed in the database; no cut-off is given here.

Legend:
MDA-MB-231 [1] = assay: Induction of DNA fragmentation in human MDA-MB-231 cells assessed as appearance of ladder-like pattern at 6 to 10 uM; assay type: functional, cell-based; conditions: dose 6-10 µM
MDA-MB-231 [2] = assay: Induction of apoptosis in human MDA-MB-231 cells assessed as fold increase in caspase 9 level at 8 uM by fluorometric assay; assay type: functional
MDA-MB-231 [3] = assay: Induction of cell cycle arrest in human MDA-MB-231 cells assessed as accumulation of cells at G1 phase at 6 uM incubated for 24 hrs by PI staining based flow cytometry analysis (reference value: 74.2%); assay type: functional
MDA-MB-231 [4] = assay: Induction of apoptosis in human MDA-MB-231 cells assessed as fold increase in caspase 8 level at 8 uM incubated for 24 hrs by fluorometric assay; assay type: functional
MDA-MB-231 [5] = assay: Induction of apoptosis in human MDA-MB-231 cells assessed as necrotic cells at 10 uM incubated for 24 hrs by FITC annexin V staining based analysis (reference value: 0.8%); assay type: functional
MDA-MB-231 [6] = assay: Induction of cell cycle arrest in human MDA-MB-231 cells assessed as accumulation of cells at G2 phase at 6 uM incubated for 24 hrs by PI staining based flow cytometry analysis (reference value: 7.9%); assay type: functional
MDA-MB-231 [7] = assay: Upregulation of Fas protein level in human MDA-MB-231 cells at 8 uM measured after 24 hrs; assay type: functional, cell-based
MDA-MB-231 [8] = assay: Upregulation of Bax protein level in human MDA-MB-231 cells at 8 uM measured after 24 hrs; assay type: functional, cell-based
MDA-MB-231 [9] = assay: Induction of apoptosis in human MDA-MB-231 cells assessed as increase in green fluorescence incubated for 24 hrs by acridine orange and ethidium bromide dual staining based analysis; assay type: functional, cell-based; conditions: dose 6-10 µM
MDA-MB-231 [10] = assay: Upregulation of TNF-beta protein level in human MDA-MB-231 cells at 8 uM measured after 24 hrs; assay type: functional, cell-based
MDA-MB-231 [11] = assay: Upregulation of TNF-alpha protein level in human MDA-MB-231 cells at 8 uM measured after 24 hrs; assay type: functional, cell-based
MDA-MB-231 [12] = assay: Downregulation of Cdc25c level in human MDA-MB-231 cells at 6 to 10 uM by Western blot analysis; assay type: functional, cell-based; conditions: dose 6-10 µM
MDA-MB-231 [13] = assay: Upregulation of FasL protein level in human MDA-MB-231 cells at 8 uM measured after 24 hrs; assay type: functional, cell-based
MDA-MB-231 [14] = assay: Induction of morphological changes in human MDA-MB-231 cells assessed as membrane breakage at 6 to 10 uM measured 24 hrs by EtBr-AO Live dead Assay; assay type: functional, cell-based; conditions: dose 6-10 µM
MDA-MB-231 [15] = assay: Induction of cell cycle arrest in human MDA-MB-231 cells assessed as accumulation of cells at S phase at 8 uM incubated for 24 hrs by PI staining based flow cytometry analysis (reference value: 12.0%); assay type: functional
MDA-MB-231 [16] = assay: Upregulation of Bad protein level in human MDA-MB-231 cells at 8 uM measured after 24 hrs; assay type: functional, cell-based
MDA-MB-231 [17] = assay: Upregulation of HTRA protein level in human MDA-MB-231 cells at 8 uM measured after 24 hrs; assay type: functional, cell-based
MDA-MB-231 [18] = assay: Induction of apoptosis in human MDA-MB-231 cells assessed as late apoptotic cells at 6 uM incubated for 24 hrs by FITC annexin V staining based analysis (reference value: 7.3%); assay type: functional
MDA-MB-231 [19] = assay: Upregulation of TNF-R1 protein level in human MDA-MB-231 cells at 8 uM measured after 24 hrs; assay type: functional, cell-based
MDA-MB-231 [20] = assay: Induction of apoptosis in human MDA-MB-231 cells assessed as early apoptotic cells at 10 uM incubated for 24 hrs by FITC annexin V staining based analysis (reference value: 1.4%); assay type: functional
MDA-MB-231 [21] = assay: Induction of apoptosis in human MDA-MB-231 cells assessed as early apoptotic cells at 8 uM incubated for 24 hrs by FITC annexin V staining based analysis (reference value: 1.4%); assay type: functional
MDA-MB-231 [22] = assay: Induction of apoptosis in human MDA-MB-231 cells assessed as late apoptotic cells at 10 uM incubated for 24 hrs by FITC annexin V staining based analysis (reference value: 7.3%); assay type: functional
MDA-MB-231 [23] = assay: Upregulation of Smac protein level in human MDA-MB-231 cells at 8 uM measured after 24 hrs; assay type: functional, cell-based
MDA-MB-231 [24] = assay: Induction of morphological changes in human MDA-MB-231 cells assessed as decrease in cell number at 15 uM measured upto 18 hrs by acridine orange and ethidium bromide dual staining based inverted microscopic analysis; assay type: functional
MDA-MB-231 [25] = assay: Downregulation of Cdk2 level in human MDA-MB-231 cells at 6 to 10 uM by Western blot analysis; assay type: functional, cell-based; conditions: dose 6-10 µM
MDA-MB-231 [26] = assay: Downregulation of cyclin B1 level in human MDA-MB-231 cells at 6 to 10 uM by Western blot analysis; assay type: functional, cell-based; conditions: dose 6-10 µM
MDA-MB-231 [27] = assay: Induction of morphological changes in human MDA-MB-231 cells assessed as leakage of intracellular components at 6 to 10 uM measured 24 hrs by EtBr-AO Live dead Assay; assay type: functional, cell-based; conditions: dose 6-10 µM
MDA-MB-231 [28] = assay: Upregulation of caspase 3 protein level in human MDA-MB-231 cells at 8 uM measured after 24 hrs; assay type: functional, cell-based
MDA-MB-231 [29] = assay: Antiproliferative activity against human MDA-MB-231 cells assessed as reduction in cell viability incubated for 24 hrs by MTT assay; assay type: functional, cell-based; conditions: MDA-MB-231, 24 h

**Q.** How did the Activity (MDA-MB-231 [1]) turn out when O=C(CCCCCCCCc1ccccc1)c1c(O)cccc1O [MALABARICONE A] was run?
**A.** Active

**Q.** What about the “fold change (FC)” value (MDA-MB-231 [2]) of the same molecule?
**A.** 3.1

**Q.** And the Activity (MDA-MB-231 [3])?
**A.** 36.8%

**Q.** And the “fold change (FC)” value (MDA-MB-231 [4])?
**A.** 2.4

**Q.** What about the Activity (MDA-MB-231 [5]) of the same molecule?
**A.** 12.7%

**Q.** What about the Activity (MDA-MB-231 [6]) of the same molecule?
**A.** 3.9%

**Q.** And the Activity (MDA-MB-231 [7])?
**A.** Active

**Q.** What about the Activity (MDA-MB-231 [8]) of the same molecule?
**A.** Active

**Q.** What about the Activity (MDA-MB-231 [9]) of the same molecule?
**A.** Dose-dependent-effect

**Q.** And the Activity (MDA-MB-231 [10])?
**A.** Active

**Q.** And the Activity (MDA-MB-231 [11])?
**A.** Active

**Q.** What about the Activity (MDA-MB-231 [12]) of the same molecule?
**A.** Active

**Q.** What about the Activity (MDA-MB-231 [13]) of the same molecule?
**A.** Active

**Q.** What about the Activity (MDA-MB-231 [14]) of the same molecule?
**A.** Active

**Q.** What about the Activity (MDA-MB-231 [15]) of the same molecule?
**A.** 9.1%

**Q.** And the Activity (MDA-MB-231 [16])?
**A.** Active

**Q.** What about the Activity (MDA-MB-231 [17]) of the same molecule?
**A.** Active

**Q.** What about the Activity (MDA-MB-231 [18]) of the same molecule?
**A.** 20.4%

**Q.** And the Activity (MDA-MB-231 [19])?
**A.** Active

**Q.** And the Activity (MDA-MB-231 [20])?
**A.** 4.25%

**Q.** And the Activity (MDA-MB-231 [21])?
**A.** 6.45%

**Q.** What about the Activity (MDA-MB-231 [22]) of the same molecule?
**A.** 50.65%

**Q.** What about the Activity (MDA-MB-231 [23]) of the same molecule?
**A.** Active

**Q.** And the Activity (MDA-MB-231 [24])?
**A.** Active

**Q.** And the Activity (MDA-MB-231 [25])?
**A.** Active

**Q.** And the Activity (MDA-MB-231 [26])?
**A.** Active

**Q.** What about the Activity (MDA-MB-231 [27]) of the same molecule?
**A.** Active

**Q.** And the Activity (MDA-MB-231 [28])?
**A.** Active

**Q.** And the IC50 (MDA-MB-231 [29])?
**A.** 8.81 µM
